Results on 21 compounds are retold here after patent US8906930B2, “Quinazoline derivatives” (Merck Patent GmbH, priority 2009, dated 2014).

The structures appear in SMILES notation.

The assay concerns the target T1, Recombinant human HSP90α (Homo sapiens, UniProt P07900).
T1 construct: host or cells: E. coli
In words: HSP90 radioligand filter binding test ([3H]17AAG competition). The following applies: radioligand [3H]17AAG 0.08 μM; HSP90 1.5 μg/assay; 22° C., 30 min; read-out: HSP90 inhibition IC50. An excerpt: The binding of geldanamycin or 17-allylamino-17-demethoxygeldanamycin (17AAG) to HSP90 and competitive inhibition thereof can be utilised in order to determine the inhibitory activity of the compounds according to the invention (Carreras et al. 2003, Chiosis et al. 2002).
In the specific case, a radioligand filter binding test is used. The radioligand used here is tritium-labelled 17-allylaminogeldanamycin, [3H]17AAG. This filter binding test allows a targeted search for inhibitors which interfere with the ATP binding site.
Recombinant human HSP90α (E. coli expressed, 95% purity);
[3H]17AAG (17-allylaminogeldanamycin, [allylamino-2,3-^3H. Specific activity: 1.11×10^12 Bq/mmol (Moravek, MT-1717);
HEPES filter buffer (50 mM HEPES, pH 7.0, 5 mM MgCl2, BSA 0.01%) Multiscreen FB (1 μm) filter plate (Millipore, MAFBNOB 50).
The 96-well microtitre filter plates are firstly irrigated and coated with 0.1% of polyethylenimine.
The test is carried out under the following conditions:
Reaction temperature 22° C.
Reaction time: 30 min., shaking at 800 rpm
50 mM HEPES HCl, pH 7.0, 5 mM MgCl2, 0.01% (w/v) of BSA
At the end of the reaction, the supernatant in the filter plate is removed by suction with the aid of a vacuum manifold (Multiscreen Separation System, Millipore), and the filter is washed twice.
The filter plates are then measured in a beta counter (Microbeta, Wallac) with scintillator (Microscint 20, Packard).
“% of control” is determined from the “counts per minutes” values, and the IC-50 value of a compound is calculated therefrom.
Usually IC50 stands for the midpoint of a concentration-inhibition curve. As for `CCNC(=O)C(C)(C)c1ccc2nc(N)nc(C(=O)N3Cc4ccccc4C3)c2c1` [Compound A36, 2-[2-Amino-4-(isoindoline-2-carbonyl)quinazolin-6-yl]-N-ethyl-2-methylpropanamide], the IC50 is 10 to 1000 nM.

With `CC(C)CNC(=O)C(C)(C)c1ccc2nc(N)nc(C(=O)N3Cc4ccccc4C3)c2c1` [Compound A37, 2-[2-Amino-4-(isoindoline-2-carbonyl)quinazolin-6-yl]-N-isobutyl-2-methylpropanamide], the half-inhibitory concentration (IC50) lay in the range of 10 to 1000 nM.

For the compound `CCCNC(=O)C(C)(C)c1ccc2nc(N)nc(C(=O)N3Cc4ccccc4C3)c2c1` [Compound A38, 2-[2-Amino-4-(isoindoline-2-carbonyl)quinazolin-6-yl]-N-propyl-2-methylpropanamide], the IC50 fell in the range of 10 to 1000 nM.

Consider `CC(C)(C(=O)NCC(N)=O)c1ccc2nc(N)nc(C(=O)N3Cc4ccccc4C3)c2c1` [Compound A39, 2-[2-Amino-4-(isoindoline-2-carbonyl)quinazolin-6-yl]-N-(2-amino-2-oxoethyl)-2-methylpropanamide], for which the IC50 fell in the range of 10 to 1000 nM.

Regarding `CC(C)(C(=O)NCCC#N)c1ccc2nc(N)nc(C(=O)N3Cc4ccccc4C3)c2c1` [Compound A40, 2-[2-Amino-4-(isoindoline-2-carbonyl)quinazolin-6-yl]-N-(2-cyanoethyl)-2-methylpropanamide], the IC50 was 1000 to 10000 nM.

Take `CNC(=O)C(CCC(F)F)c1ccc2nc(N)nc(C(=O)N3Cc4ccccc4C3)c2c1` (stereo not drawn) [Compound A41, 2-[2-Amino-4-(isoindoline-2-carbonyl)quinazolin-6-yl]-N-methyl-5,5-difluoropentanamide]: the concentration for half-maximal inhibition (IC50) was in the range of 10 to 1000 nM.

For the compound `CCNC(=O)C(CCC(F)F)c1ccc2nc(N)nc(C(=O)N3Cc4ccccc4C3)c2c1` (stereo not drawn) [Compound A42, 2-[2-Amino-4-(isoindoline-2-carbonyl)quinazolin-6-yl]-N-ethyl-5,5-difluoropentanamide], the IC50 was 1000 to 10000 nM.

Take `CCCC(C(=O)NCC)c1ccc2nc(N)nc(C(=O)N3Cc4ccccc4C3)c2c1` (stereo not drawn) [Compound A43, 2-[2-Amino-4-(isoindoline-2-carbonyl)quinazolin-6-yl]-N-ethylpentanamide]: the IC50 lay in the range of 10 to 1000 nM.

With `CCCCC(C(=O)NCC)c1ccc2nc(N)nc(C(=O)N3Cc4ccccc4C3)c2c1` (stereo not drawn) [Compound A44, 2-[2-Amino-4-(isoindoline-2-carbonyl)quinazolin-6-yl]-N-ethylhexanamide], the IC50 fell in the range of 10 to 1000 nM.

`CCNC(=O)C(CCC(C)C)c1ccc2nc(N)nc(C(=O)N3Cc4ccccc4C3)c2c1` (stereo not drawn) [Compound A45, 2-[2-Amino-4-(isoindoline-2-carbonyl)quinazolin-6-yl]-N-ethyl-5-methyl-hexanamide]: the half-maximal inhibitory concentration (IC50) was in the range of 10 to 1000 nM.

As for `CCNC(=O)C(CC(C)C)c1ccc2nc(N)nc(C(=O)N3Cc4ccccc4C3)c2c1` (stereo not drawn) [Compound A46, 2-[2-Amino-4-(isoindoline-2-carbonyl)quinazolin-6-yl]-N-ethyl-4-methylpentanamide], the concentration for half-maximal inhibition (IC50) lay within 10 to 1000 nM.

For `CCNC(=O)C(c1ccc2nc(N)nc(C(=O)N3Cc4ccccc4C3)c2c1)C(C)CC` (stereo not drawn) [Compound A47, 2-[2-Amino-4-(isoindoline-2-carbonyl)quinazolin-6-yl]-N-ethyl-3-methylpentanamide], the concentration for half-maximal inhibition (IC50) is 10 to 1000 nM.

`CCNC(=O)C(c1ccc2nc(N)nc(C(=O)N3Cc4ccccc4C3)c2c1)C(C)C` (stereo not drawn) [Compound A48, 2-[2-Amino-4-(isoindoline-2-carbonyl)quinazolin-6-yl]-N-ethyl-3-methyl-butanamide]: the half-maximal inhibitory concentration (IC50) lay within 10 to 1000 nM.

For `C=C(CC(C(=O)NCC)c1ccc2nc(N)nc(C(=O)N3Cc4ccccc4C3)c2c1)C(N)=O` (stereo not drawn) [Compound A50, 2-[2-Amino-4-(isoindoline-2-carbonyl)quinazolin-6-yl]-N′-ethyl-2-methylene-pentanediamide], the IC50 was 1000 to 10000 nM.

In the case of `CCNC(=O)C1(c2ccc3nc(N)nc(C(=O)N4Cc5ccccc5C4)c3c2)CCCC1` [Compound A53, 1-[2-Amino-4-(isoindoline-2-carbonyl)quinazolin-6-yl]-N-ethylcyclopentanecarboxamide], the IC50 is 10 to 1000 nM.

For the compound `CCNC(=O)C1(c2ccc3nc(N)nc(C(=O)N4Cc5ccccc5C4)c3c2)CCOCC1` [Compound A54, 1-[2-Amino-4-(isoindoline-2-carbonyl)quinazolin-6-yl]-N-ethyltetrahydropyran-4-carboxamide], the half-maximal inhibitory concentration (IC50) lay in the range of 1000 to 10000 nM.

As to `CCCC(C)(C(=O)NCC)c1ccc2nc(N)nc(C(=O)N3Cc4ccccc4C3)c2c1` (stereo not drawn) [Compound A55, 2-[2-Amino-4-(isoindoline-2-carbonyl)quinazolin-6-yl]-N-ethyl-2-methylpentanamide], the half-maximal inhibitory concentration (IC50) is 10 to 1000 nM.

Regarding `CCOC(=O)C1(c2ccc3nc(N)nc(C(=O)N4Cc5ccccc5C4)c3c2)CC1` [Compound A56, Ethyl 1-[2-amino-4-(isoindoline-2-carbonyl)quinazolin-6-yl]cyclopropanecarboxylate], the 50% inhibitory concentration (IC50) lay in the range of 10 to 1000 nM.

In the case of `Nc1nc(C(=O)N2Cc3ccccc3C2)c2cc(C3(C(=O)O)CC3)ccc2n1` [Compound A57, 1-[2-Amino-4-(isoindoline-2-carbonyl)quinazolin-6-yl]cyclopropanecarboxylic acid], the IC50 is 10 to 1000 nM.

In the case of `C=C(CC(C(=O)O)c1ccc2nc(N)nc(C(=O)N3Cc4ccccc4C3)c2c1)C(N)=O` (stereo not drawn) [Compound A74], the IC50 lay within 1000 to 10000 nM.

Turning to `CN1CCN(Cc2ccc3nc(N)nc(C(=O)N4Cc5ccccc5C4)c3c2)CC1` [Compound A76, [2-amino-6-[(4-methylpiperazin-1-yl)methyl]quinazolin-4-yl]-isoindolin-2-ylmethanone], the half-inhibitory concentration (IC50) is 1000 to 10000 nM.
